# Data reported in US7867707B2, “Method for detecting analytes in a sample” (Evotec AG, priority 2004, dated 2011).
# Test system: c-fos mRNA
# Experiment: Expression of c-fos mRNA in HepG2 cells, bead-based confocal detection with detection/capture oligonucleotides
# Format: cell-based
# Conditions: 100 nM PMA, 24 μl of lysate, using the calibration of example 1a
# Protocol: Fully automated dual-channel confocal imaging was performed with two independent cooled CCD detectors. Excitation wavelengths were 532 nm and 633 nm, a dichroic beam splitter with 630 nm was used and emission filters were 565/50 nm and 690/40 nm. Laser power was […] for both wavelengths, measured at the entrance of the objective. Exposure times were usually in the range of 500-1000 ms.
# The analysis of the images was performed with image analysis software as follows. Segmentation of the beads from the background was performed on a pixel-basis in the reference image. […] A mask of these rings corresponding to detected beads was generated from the reference image. This mask was applied to the signal image (see FIG. 6, right picture). Areas within the outer boundary of the ring were evaluated for fluorescence intensity stemming from the DO-analyte-CO complex bound to the bead. […] Such local background intensity was then subtracted from the signal intensity.
# The final result was the mean fluorescence intensity/bead pixel of the signal image. In general, the intensity was averaged over all correctly detected beads of the image. As already mentioned, images of sedimented beads were taken. The sedimented beads were usually comprised in wells of micro- or nanotiter plates and in some cases, several images were taken of each well. […]
compound,measurement,value
"CCCCCCCCCCCCCC(=O)O[C@@H]1[C@@H](C)[C@@]2(O)[C@@H](C=C(CO)C[C@]3(O)C(=O)C(C)=C[C@@H]23)[C@@H]2C(C)(C)[C@]12OC(C)=O [PMA, Phorbol 12-myristate 13-acetate]",c-fos mRNA copy number,3.03*10^6 copies mRNA/well
